PubChem BioAssay AID504470 (NMMLSC, 2011)
The source made the active and inactive calls.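 The calls were made as follows: active = EC50, the half-effect concentration on GFP expression, at most 33 µM; inactive = the rest.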

tested on: not listed separately; assay: yeast RPL19A-GFP fluorescence modulation, SAR follow-up, cell-based, KU SAR set 2, kMESF flow cytometry, multiplex (AID 504470); conditions: S. cerevisiae RPL19A-GFP strain, flow cytometry fluorescence, 3 h; at 100 µM (top of the series)

Row | Structure (SMILES) | GFP fluorescence (kMESF)
1 | CNc1nc(NC2CCCCC2)c([N+](=O)[O-])c(N2CCOCC2)n1 | 21.9% (inactive)
2 | CNc1nc(N)c([N+](=O)[O-])c(Nc2cccc(Oc3ccccc3)c2)n1 | 23% (inactive)
3 | CNc1nc(N)c([N+](=O)[O-])c(Nc2cccc(OC)c2)n1 | 22.9% (inactive)
4 | CCNc1nc(N)c([N+](=O)[O-])c(Nc2cccc(Cl)c2)n1 | 18.9% (inactive)
5 | CNc1nc(NC)c([N+](=O)[O-])c(Nc2cccc(Cl)c2)n1 | 23.3% (inactive)
6 | CNc1nc(N)c([N+](=O)[O-])c(Nc2ccccc2F)n1 | 24.8% (inactive)
7 | CNc1nc(N)c([N+](=O)[O-])c(Nc2cccc(Br)c2)n1 | 24% (inactive)
8 | CNc1nc(N)c([N+](=O)[O-])c(Nc2ccccc2Br)n1 | 23.4% (inactive)

same assay, conditions: S. cerevisiae RPL19A-GFP strain, flow cytometry fluorescence, 3 h; at 300 µM (top of the series)

Row | Structure (SMILES) | GFP fluorescence (kMESF)
9 | COc1cccc(-c2cc(Nc3cc(C)[nH]n3)nc(NCc3ccccc3)n2)c1 | 32.4% (inactive)
10 | Cc1cc(Nc2cc(-c3ccccc3)nc(NCc3ccccc3)n2)n[nH]1 | 31.4% (inactive)
11 | COc1ccccc1-c1cc(Nc2cc(C)[nH]n2)nc(NCc2ccccc2)n1 | 30% (inactive)
12 | COC(=O)c1cccc(-c2cc(Nc3cc(C)[nH]n3)nc(NCc3ccccc3)n2)c1 | 32.9% (inactive)
13 | O=[N+]([O-])c1c(NC2CCCCC2)nc(NCc2ccccc2)nc1N1CCOCC1 | 29.5% (inactive)
14 | CNc1nc(N)cc(Nc2ccccc2F)n1 | 32% (inactive)
15 | CNc1nc(N)cc(Oc2cccc(Cl)c2)n1 | 32.2% (inactive)
16 | Cc1cc(Nc2cc(Nc3ccccc3)nc(NCc3ccccc3)n2)n[nH]1 | 30% (inactive)
17 | CCOC(=O)c1c(N)nc(NC)nc1Nc1cccc(F)c1 | 29.8% (inactive)

tested on: S. cerevisiae RPL19A-GFP strain, flow cytometry fluorescence, 3 h; assay: as above; conditions: not given

Row | EC50 | Structure (SMILES)
18 | 125 µM (inactive) | CNc1nc(N)c(C(=O)c2ccc(C)c(C)c2)c(Nc2cccc(Cl)c2)n1
19 | 69.1 µM (inactive) | CNc1nc(N)cc(Nc2cccc(Cl)c2)n1
20 | 70.5 µM (inactive) | CCNc1nc(NC2CCCCC2)c([N+](=O)[O-])c(N2CCOCC2)n1
